Patent publication US10618918B2, “Substituted boronic acids as antimicrobials” (priority 2015, dated 2020)
Like-named read-outs stand apart in the source and are kept apart here.

Key:
ec302 TEM-10 = assay: Aztreonam potentiation (MPC@4), strain ec302 TEM-10; details: minimum BLI concentration inhibiting growth with aztreonam 4 μg/mL; tested up to 40 μg/mL
KP1004 KPC-2 [1] = assay: Aztreonam potentiation (MPC@4), strain KP1004 KPC-2; details: minimum BLI concentration inhibiting growth with aztreonam 4 μg/mL; tested up to 40 μg/mL
KP1009 CTX-M-15 = assay: Aztreonam potentiation (MPC@4), strain KP1009 CTX-M-15; details: minimum BLI concentration inhibiting growth with aztreonam 4 μg/mL; tested up to 40 μg/mL
ECL1002 = assay: Aztreonam potentiation (MPC@4), strain ECL1002; details: minimum BLI concentration inhibiting growth with aztreonam 4 μg/mL; tested up to 40 μg/mL
KP1010 SHV-12 = assay: Aztreonam potentiation (MPC@4), strain KP1010 SHV-12; details: minimum BLI concentration inhibiting growth with aztreonam 4 μg/mL; tested up to 40 μg/mL
[2] = biological target: purified class A, C and D enzymes (β-lactamases) (Klebsiella pneumoniae, UniProt Q6XEC0); assay: biochemical; format: biochemical; details: purified OXA-48; nitrocefin (NCF) as reporter substrate
[3] = biological target: purified class A, C and D enzymes (β-lactamases) (Enterobacter cloacae, UniProt P05364); assay: biochemical; format: biochemical
purified class A, C and D enzymes (β-lactamases) (Enterobacter cloacae, UniProt P05364), sequence (P05364 21-381): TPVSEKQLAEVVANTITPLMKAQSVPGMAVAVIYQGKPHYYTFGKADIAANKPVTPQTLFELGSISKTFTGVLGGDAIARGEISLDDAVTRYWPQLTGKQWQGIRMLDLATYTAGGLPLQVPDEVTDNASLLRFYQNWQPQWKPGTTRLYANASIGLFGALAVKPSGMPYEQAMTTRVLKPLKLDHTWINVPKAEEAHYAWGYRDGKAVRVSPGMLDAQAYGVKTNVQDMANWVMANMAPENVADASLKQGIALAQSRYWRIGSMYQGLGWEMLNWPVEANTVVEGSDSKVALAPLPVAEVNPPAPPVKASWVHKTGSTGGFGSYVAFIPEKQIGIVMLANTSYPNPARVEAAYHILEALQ

[4] = biological target: T1, purified class A, C and D enzymes (β-lactamases) (Pseudomonas aeruginosa, UniProt P24735); assay: biochemical; format: biochemical
T1 construct: rows headed: Ki (Pa-AmpC, NCF), uM; other: purified Pa-AmpC; nitrocefin (NCF) as reporter substrate
T1 sequence (P24735 whole entry): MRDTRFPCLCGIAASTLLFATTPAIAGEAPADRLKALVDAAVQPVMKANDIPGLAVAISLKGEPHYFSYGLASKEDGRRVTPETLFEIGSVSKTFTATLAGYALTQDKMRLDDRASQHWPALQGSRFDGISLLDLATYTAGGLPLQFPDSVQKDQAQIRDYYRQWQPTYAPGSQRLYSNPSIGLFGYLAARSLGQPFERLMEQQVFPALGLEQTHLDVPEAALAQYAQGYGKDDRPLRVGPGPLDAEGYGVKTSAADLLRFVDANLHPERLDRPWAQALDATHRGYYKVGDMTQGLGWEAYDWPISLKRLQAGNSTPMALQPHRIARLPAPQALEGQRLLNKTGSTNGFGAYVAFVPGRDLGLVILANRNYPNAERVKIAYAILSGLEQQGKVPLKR

[5] = biological target: purified class A, C and D enzymes (β-lactamases) (Klebsiella pneumoniae, UniProt Q9F663); assay: biochemical; format: biochemical; details: purified KPC-2; nitrocefin (NCF) as reporter substrate
[6] = biological target: T2, purified class A, C and D enzymes (β-lactamases) (Acinetobacter baumannii, UniProt Q9L4P2); assay: biochemical; format: biochemical; details: purified OXA-23; nitrocefin (NCF) as reporter substrate
T2 construct: rows headed: Ki (OXA-23, NCF), uM; other: purified OXA-23; nitrocefin (NCF) as reporter substrate
T2 sequence (Q9L4P2 whole entry): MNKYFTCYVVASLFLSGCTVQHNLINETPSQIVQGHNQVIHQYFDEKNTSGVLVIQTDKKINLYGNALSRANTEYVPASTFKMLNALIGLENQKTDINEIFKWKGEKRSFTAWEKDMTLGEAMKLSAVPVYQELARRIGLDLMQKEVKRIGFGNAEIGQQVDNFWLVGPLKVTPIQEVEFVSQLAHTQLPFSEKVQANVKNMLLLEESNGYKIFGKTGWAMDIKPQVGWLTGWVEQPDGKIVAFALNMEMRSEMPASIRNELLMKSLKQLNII

[7] = biological target: purified class A, C and D enzymes (β-lactamases) (Escherichia coli, UniProt Q9L5C7); assay: biochemical; format: biochemical; details: purified CTX-M-14; nitrocefin (NCF) as reporter substrate
purified class A, C and D enzymes (β-lactamases) (Escherichia coli, UniProt Q9L5C7), sequence (Q9L5C7 entry or part of it): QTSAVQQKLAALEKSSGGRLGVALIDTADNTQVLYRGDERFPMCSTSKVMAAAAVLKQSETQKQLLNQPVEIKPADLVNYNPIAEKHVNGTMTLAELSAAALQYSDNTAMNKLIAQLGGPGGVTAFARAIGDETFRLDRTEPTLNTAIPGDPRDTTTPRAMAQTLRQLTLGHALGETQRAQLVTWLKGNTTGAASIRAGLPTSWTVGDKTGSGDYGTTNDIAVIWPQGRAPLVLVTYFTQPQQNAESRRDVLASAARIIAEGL

ec308 SHV-5 = assay: Aztreonam potentiation (MPC@4), strain ec308 SHV-5; details: minimum BLI concentration inhibiting growth with aztreonam 4 μg/mL; tested up to 40 μg/mL
KP1086 OXA-48 = assay: Biapenem potentiation (MPC@1), strain KP1086 OXA-48; format: cell-based; details: minimum BLI concentration inhibiting growth with biapenem 1 μg/mL; tested up to 40 μg/mL
Protocol: (§1) Biapenem was present in the test medium at 1 μg/mL. […] Table 3 summarizes the BLI potency of biapenem potentiation (MPC@1) for two strains overexpressing class A (KPC) and class D (OXA-48) carbapenemases. Biapenem MIC for each strain is also shown.

KP1004 KPC-2 [8] = assay: Biapenem potentiation (MPC@1), strain KP1004 KPC-2; format: cell-based; details: minimum BLI concentration inhibiting growth with biapenem 1 μg/mL; tested up to 40 μg/mL
Protocol: as §1

AB1054 OXA-23 = assay: Meropenem potentiation (MPC@8), strain AB1054 OXA-23; format: cell-based, Acinetobacter baumannii; details: minimum BLI concentration inhibiting growth with meropenem 8 μg/mL; tested up to 20 μg/mL
KP1005 CTX-M-14 = assay: Tigemonam potentiation (MPC@4), strain KP1005 CTX-M-14; details: minimum BLI concentration inhibiting growth with tigemonam 4 μg/mL; tested up to 40 μg/mL
AB1053 OXA-72 = assay: Meropenem potentiation (MPC@8), strain AB1053 OXA-72; format: cell-based, Acinetobacter baumannii; details: minimum BLI concentration inhibiting growth with meropenem 8 μg/mL; tested up to 20 μg/mL
EC1010 CMY-6 = assay: Aztreonam potentiation (MPC@4), strain EC1010 CMY-6; details: minimum BLI concentration inhibiting growth with aztreonam 4 μg/mL; tested up to 40 μg/mL

Row | Compound | AZT MPC4 TEM-10 ec302 (ec302 TEM-10) | AZT MPC4 KPC-2 KP1004 (KP1004 KPC-2 [1]) | AZT MPC4 CTX-M-15 KP1009 (KP1009 CTX-M-15) | AZT MPC4 ECL1002 (ECL1002) | AZT MPC4 SHV-12 KP1010 (KP1010 SHV-12) | Ki (OXA-48, NCF), uM [2] | Ki (P99, NCF), uM [3] | Ki [4] [µM] | Ki (KPC-2, NCF), uM [5] | Ki [6] [µM] | Ki (CTX-M-14, NCF), uM [7] | AZT MPC4 SHV-5 ec308 (ec308 SHV-5) | BPM MPC1 OXA-48 KP1086 (KP1086 OXA-48) | BPM MPC1 KP1004 KPC-2 (KP1004 KPC-2 [8]) | MPM MPC8 AB1054 OXA-23 (AB1054 OXA-23) | TIG MPC4 CTX-M-14 KP1005 (KP1005 CTX-M-14) | MPM MPC8 AB1053 OXA-72 (AB1053 OXA-72) | AZT MPC4 CMY-6 EC1010 (EC1010 CMY-6) | Ki (P99, NCF), uM ([3]; purified P99, nitrocefin (NCF) as reporter substrate) | Ki ([4]; purified Pa-AmpC, nitrocefin (NCF) as reporter substrate, read-out: Ki (Pa-AmpC, NCF)) [µM]
1 | O=C([O-])c1c(CSC2CNC2)ccc2c1O[B-](O)(O)CC2.[Na+].[Na+] [Compound 19, Disodium; 8-(azetidin-3-ylsulfanylmethyl)-4,4-dihydroxy-5-oxa-4-boranuidabicyclo[4.4.0]deca-1(6),7,9-triene-7-carboxylate] | Y (Y = 5 μg/mL < MPC@4 ≤ 20 μg/mL) | X (X = MPC@4 ≤ 5 μg/mL) | X (X = MPC@4 ≤ 5 μg/mL) | Y (Y = 5 μg/mL < MPC@4 ≤ 20 μg/mL) | X (X = MPC@4 ≤ 5 μg/mL) | X (X = Ki ≤ 0.1 μM) | X (key: X = Ki ≤ 0.1 μM; Y = 0.1 μM < Ki ≤ 1 μM; Z = Ki > 1 μM) | < 0.1 | X (X = Ki ≤ 0.1 μM) | < 0.1 | X (X = Ki ≤ 0.1 μM) | X (X = MPC@4 ≤ 5 μg/mL) | X (X = MPC@1 ≤ 5 μg/mL) | X (X = MPC@1 ≤ 5 μg/mL) | X (X = MPC@1 ≤ 5 μg/mL) | Z (Z = MPC@4 > 20 μg/mL) | X (X = MPC@1 ≤ 5 μg/mL) | X (X = MPC@4 ≤ 5 μg/mL) | – | –
2 | O=C(O)c1c(F)c(F)cc2c1OB(O)CC2 [Compound 35, 6,7-Difluoro-2-hydroxy-3,4-dihydro-1,2-benzoxaborinine-8-carboxylic acid] | X (X = MPC@4 ≤ 5 μg/mL) | X (X = MPC@4 ≤ 5 μg/mL) | X (X = MPC@4 ≤ 5 μg/mL) | X (X = MPC@4 ≤ 5 μg/mL) | X (X = MPC@4 ≤ 5 μg/mL) | X (X = Ki ≤ 0.1 μM) | – | – | X (X = Ki ≤ 0.1 μM) | < 0.1 | X (X = Ki ≤ 0.1 μM) | X (X = MPC@4 ≤ 5 μg/mL) | X (X = MPC@1 ≤ 5 μg/mL) | X (X = MPC@1 ≤ 5 μg/mL) | X (X = MPC@1 ≤ 5 μg/mL) | Y (Y = 5 μg/mL < MPC@4 ≤ 20 μg/mL) | X (X = MPC@1 ≤ 5 μg/mL) | X (X = MPC@4 ≤ 5 μg/mL) | X (X = Ki ≤ 0.1 μM) | < 0.1
3 | CN(C)CCOc1ccc2c(c1C(=O)[O-])O[B-](O)(O)CC2.[Na+].[Na+] [Compound 48, Disodium; 8-[2-(dimethylamino)ethoxy]-4,4-dihydroxy-5-oxa-4-boranuidabicyclo[4.4.0]deca-1(6),7,9-triene-7-carboxylate] | Y (Y = 5 μg/mL < MPC@4 ≤ 20 μg/mL) | X (X = MPC@4 ≤ 5 μg/mL) | Y (Y = 5 μg/mL < MPC@4 ≤ 20 μg/mL) | Y (Y = 5 μg/mL < MPC@4 ≤ 20 μg/mL) | X (X = MPC@4 ≤ 5 μg/mL) | X (X = Ki ≤ 0.1 μM) | Y (key: X = Ki ≤ 0.1 μM; Y = 0.1 μM < Ki ≤ 1 μM; Z = Ki > 1 μM) | 0.1 to 1 | X (X = Ki ≤ 0.1 μM) | < 0.1 | X (X = Ki ≤ 0.1 μM) | Y (Y = 5 μg/mL < MPC@4 ≤ 20 μg/mL) | X (X = MPC@1 ≤ 5 μg/mL) | X (X = MPC@1 ≤ 5 μg/mL) | Y (Y = 5 μg/mL < MPC@1 ≤ 20 μg/mL) | Z (Z = MPC@4 > 20 μg/mL) | X (X = MPC@1 ≤ 5 μg/mL) | X (X = MPC@4 ≤ 5 μg/mL) | – | –
